# Data from patent US7501410B2, “Methods of inhibiting BTK and SYK protein kinases” (Roche Palo Alto LLC, priority 2006, dated 2009).
# Values joined by “and” are separate entries in the source; they are usually repeats but may differ in a detail not shown here. Identical values can stand only once. Like-named read-outs stand apart in the source and are kept apart here.
# Key:
# [1] = biological target: T1, Spleen Tyrosine Kinase (SYK) aa 360-635 (Homo sapiens, UniProt P43405); assay: Determination of IC50 of Spleen Tyrosine Kinase (SYK) inhibition, 33P kinase assay; type: biochemical; conditions: recombinant human SYK360-635, 20 μM ATP
# T1 construct: truncated construct of Spleen Tyrosine Kinase aa 360-635; made in house
# Description: Determination of IC50 of Spleen Tyrosine Kinase (SYK) Inhibition
# The SYK kinase assay is a standard kinase assay adapted to a 96 well plate format. This assay is performed in 96-well format for IC50 determination with 8 samples which represented 10 half log dilutions and a 40 μL reaction volume. The assay measures the incorporation of radiolabeled ^33P γATP into an N-terminally biotinylated peptide substrate, derived from naturally occurring phosphoacceptor consensus sequence (Biotin-11aa DY*E). Phosphorylated products were detected upon termination of reactions with EDTA and the addition of Streptavidin coated beads. • Assay plates: 96-well MultiScreen 0.65 um filter plates (Millipore Cat. No.: MADVNOB10) • Streptavidin coated beads: Streptavidin Sepharose TM, suspension 5.0 mL, in 50 mM EDTA/PBS diluted (1:100), (Amersham, Cat. No.: 17-5113-01) • Compounds: 10 mM in 100% dimethylsulfoxide (DMSO), final conc.: compound 0.003-100 uM in 10% DMSO • Enzyme: SYK RPA purified, truncated construct of Spleen Tyrosine Kinase aa 360-635, stock solution 1 mg/mL, MW: 31.2 KDa, final conc.:0.0005 μM. • Peptide 1: biotinylated peptide is derived from a naturally occurring phosphor-acceptor consensus sequence (Biotin-[…]), special order from QCB, stock solution 20 mM, final conc.: 5.0 μM. • ATP: Adenosine-5′-triphosphate 20 mM, (ROCHE Cat. No.:93202720), final concentration: 20 μM • Buffer: HEPES: 2-Hydroxyethyl piperazine-2-ethanesulfonic acid (Sigma, Cat. No.: H-3375) final concentration: 50 mM HEPES pH7.5 • BSA: Bovine Serum Albumin Fraction V, fatty acid free (Roche Diagnostics GmbH, Cat. No. 9100221) diluted to a final concentration of 0.1% • EDTA: EDTA stock solution 500 mM, (GIBCO, Cat. No.: 15575-038) final concentration: 0.1 mM • DTT: 1,4-Dithiothreitol (Roche Diagnostics GmbH, Cat. No.: 197777), final conc.: 1 mM • MgCl2×6H2O: MERCK, Cat. No.: 105833.1000, final concentration: 10 mM • Assay Dilution Buffer (ADB): 50 mM HEPES, 0.1 mM EGTA, 0.1 mM Na Vanadate, 0.1 mM β-glycerophosphate, 10 mM MgCl2, 1 mM DTT, 0,1% BSA, pH 7.5 • Bead wash buffer: 10 g/L PBS (Phosphate buffered saline) with 2M NaCl+1% phosphoric acid Experimental Method:
# In 40 μL volume, 26 μL of ADB diluted, purified recombinant human SYK360-635 [0.5 nM] was mixed with 4 μL of 10× concentrations of the test compounds, [usually 100 μM-0.003 μM] in [10%] DMSO and the mixture was incubated for 10 min at RT.
# The kinase reaction was initiated by the addition of 10 μL 4× substrate cocktail containing the DYE peptide substrate [0 or 5 μM], ATP [20 μM] and […] [2 μCi/rxn]. After incubation at 30° C. for 15 min, the reaction was terminated by the transfer of 25 μL of the reaction sample to a 96 well 0.65 um Millipore MADVNOB membrane/plate containing 200 μL 5 mM EDTA and 20% Streptavidine coated beads in PBS.
# The unbound radionucleotides were washed under vacuum with 3×250 μL 2M NaCl; 2×250 μL 2M NaCl+1% phosphoric acid; 1×250 μL H2O. After the last wash membrane/plates were transferred to an adaptor plate, heat dried for 15 min at 60° C., and 50 μL scintillation cocktail was added to each well and 4 h later the amount of radioactivity was counted in a top counter.
# The IC50 was calculated using a non-linear curve fit with XLfit software (ID Business Solution Ltd., Guilford, Surrey, UK). […] Representative results are in Table 1.
# [2] = biological target: T2, Bruton's Tyrosine Kinase (Btk) (Homo sapiens, UniProt Q06187); assay: Determination of IC50 of Bruton's Tyrosine Kinase (Btk) inhibition, 33P filtration assay; type: biochemical; conditions: His-tagged full-length Btk, 100 μM ATP
# T2 construct: 5-10 nM Btk enzyme (His-tagged, full-length); His tag
# From the text: Determination of IC50 of Bruton's Tyrosine Kinase (Btk) Inhibition
# The assay is a capture of radioactive ^33P phosphorylated product through filtration. The interactions of Btk, biotinylated SH2 peptide substrate (Src homology), and ATP lead to phosphorylation of the peptide substrate. Biotinylated product is bound streptavidin sepharose beads. All bound, radiolabeled products are detected by scintillation counter.
# Plates assayed are 96-well polypropylene (Greiner) and 96-well 1.2 μm hydrophilic PVDF filter plates (Millipore). Concentrations reported here are final assay concentrations: 10-100 μM compounds in DMSO (Burdick and Jackson), 5-10 nM Btk enzyme (His-tagged, full-length), 30 μM peptide substrate (Biotin-Aca-[…]-NH2), 100 μM ATP (Sigma), 8 mM imidazole (Sigma, pH 7.2), 8 mM glycerol-2-phosphate (Sigma), 200 μM EGTA (Roche Diagnostics), 1 mM MnCl2 (Sigma), 20 mM MgCl2 (Sigma), 0.1 mg/ml BSA (Sigma), 2 mM DTT (Sigma), 1 μCi ^33P ATP (Amersham), 20% streptavidin sepharose beads (Amersham), 50 mM EDTA (Gibco), 2 M NaCl (Gibco), 2 M NaCl w/1% phosphoric acid (Gibco), microscint-20 (Perkin Elmer).
# IC50 determinations are calculated from 10 data points per compound utilizing data produced from a standard 96-well plate assay template. One control compound and seven unknown inhibitors were tested on each plate and each plate was run twice. Typically, compounds were diluted in half-log starting at 100 μM and ending at 3 nM. The control compound was staurosporine. Background was counted in the absence of peptide substrate. Total activity was determined in the presence of peptide substrate. The following protocol was used to determine BTK inhibition.
# 1) Sample preparation: The test compounds were diluted at half-log increments in assay buffer (imidazole, glycerol-2-phosphate, EGTA, MnCl2, MgCl2, BSA).
# 2) Bead preparation • a.) rinse beads by centrifuging at 500 g • b.) reconstitute the beads with PBS and EDTA to produce a 20% bead slurry
# 3) Pre-incubate reaction mix without substrate (assay buffer, DTT, ATP, ^33P ATP) and mix with substrate (assay buffer, DTT, ATP, ^33P ATP, peptide substrate) 30° C. for 15 min.
# 4) To start assay, pre-incubate 10 μL BTK in enzyme buffer (imidazole, glycerol-2-phosphate, BSA) and 10 μL of test compounds for 10 min at RT.
# 5) Add 30 μL reaction mixture without or with substrate to BTK and compounds.
# 6) Incubate 50 μL total assay mix for 30 min at 30° C.
# 7) Transfer 40 μL of assay to 150 μL bead slurry in filter plate to stop reaction.
# 8) Wash filter plate after 30 min, with following steps • a. 3 ×250 μL NaCl • b. 3×250 μL NaCl containing 1% phosphoric acid • c. 1×250 μL H2O
# 9) Dry plate for 1 h at 65° C. or overnight at RT
# 10) Add 50 μL microscint-20 and count ^33P cpm on scintillation counter.
# Calculate percent activity from raw data in cpm percent activity=(sample−bkg)/(total activity−bkg)×100
# T2 sequence (Q06187 whole entry): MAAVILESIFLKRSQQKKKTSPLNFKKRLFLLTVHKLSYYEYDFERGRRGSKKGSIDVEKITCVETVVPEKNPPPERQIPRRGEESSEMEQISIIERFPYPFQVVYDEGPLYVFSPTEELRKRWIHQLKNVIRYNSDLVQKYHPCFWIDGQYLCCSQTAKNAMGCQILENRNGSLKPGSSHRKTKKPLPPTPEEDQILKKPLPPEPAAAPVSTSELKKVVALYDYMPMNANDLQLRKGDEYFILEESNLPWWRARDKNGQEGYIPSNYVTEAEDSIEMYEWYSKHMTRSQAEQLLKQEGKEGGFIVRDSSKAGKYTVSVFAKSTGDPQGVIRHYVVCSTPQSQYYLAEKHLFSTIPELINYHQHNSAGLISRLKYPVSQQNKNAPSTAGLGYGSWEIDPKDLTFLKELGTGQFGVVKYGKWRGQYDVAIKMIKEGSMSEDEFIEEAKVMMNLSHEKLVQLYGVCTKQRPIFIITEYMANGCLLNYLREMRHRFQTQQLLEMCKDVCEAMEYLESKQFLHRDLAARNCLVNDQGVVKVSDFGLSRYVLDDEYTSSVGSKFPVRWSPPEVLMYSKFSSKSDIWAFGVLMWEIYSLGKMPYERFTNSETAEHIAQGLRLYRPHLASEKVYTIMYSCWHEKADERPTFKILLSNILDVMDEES
IC50 ([1]; read-out: IC50 (μM) SYK Assay) [µM],IC50 [2] [µM],SMILES,IC50 ([1]; IC50 (μM) SYK Assay)
7.61,9.53,"Cc1cc(Nc2nn(C(C)C)c(=O)c3cc(F)ccc23)n[nH]1 [Example E-2, 7-Fluoro-2-isopropyl-4-(5-methyl-1H-pyrazol-3-ylamino)-2H-phthalazin-1-one]",
87.5,58.2,"Cc1cc(Nc2nn(C(C)C)c(=O)c3ccc(F)cc23)n[nH]1 [Example E-3, 6-Fluoro-2-isopropyl-4-(5-methyl-1H-pyrazol-3-ylamino)-2H-phthalazin-1-one]",
7.67,10.4,"Cc1cc(Nc2nn(CC(=O)c3ccccc3)c(=O)c3ccccc23)n[nH]1 [Example E-9, 4-(5-methyl-1H-pyrazol-3-ylamino)-2-(2-oxo-2-phenyl-ethyl)-2H-phthalazin-1-one]",
36.4,> 100,"Cc1cc(Nc2nn(C(C)C)c(=O)c3ccc(N4CCOCC4)cc23)n[nH]1 [Example F-2, 2-Isopropyl-4-(5-methyl-1H-pyrazol-3-ylamino)-6-morpholino-2H-phthalazin-1-one]",
37.4,14.6,"Cc1cc(Nc2nn(C(C)C)c(=O)c3ccc(N(C)C)cc23)n[nH]1 [Example F-7, 2-Isopropyl-4-(5-methyl-1H-pyrazol-3-ylamino)-6-dimethylamino-2H-phthalazin-1-one]",
0.793,0.724,"COc1ccc2c(Nc3cc(C)[nH]n3)nn(C(C)C)c(=O)c2c1 [Example G-1, 2-Isopropyl-4-(5-methyl-1H-pyrazol-3-ylamino)-7-methoxy-2H-phthalazin-1-one]",
2.52,1.28,"Cc1cc(Nc2nn(C(C)C)c(=O)c3cc(O)ccc23)n[nH]1 [Example G-6, 7-Hydroxy-2-isopropyl-4-(5-methyl-1H-pyrazol-3-yl-amino)-2H-phthalazin-1-one]",
1.57,4.32,"CSc1ccc2c(Nc3cc(C)[nH]n3)nn(C(C)C)c(=O)c2c1 [Example H-1, 2-Isopropyl-4-(5-methyl-1H-pyrazol-3-ylamino)-7-methylsulfanyl-2H-phthalazin-1-one]",
4.29,1.11,"Cc1cc(Nc2nn(C(C)C)c(=O)c3cc(S(C)(=O)=O)ccc23)n[nH]1 [Example H-2, 2-Isopropyl-7-methanesulfonyl-4-(5-methyl-1H-pyrazol-3-ylamino)-2H-phthalazin-1-one]",
0.392,0.231,"Cc1cc(Nc2nn(C(C)C)c(=O)c3cc(N(C)Cc4ccncc4)ccc23)n[nH]1 [Example I-2, 2-Isopropyl-4-(5-methyl-1H-pyrazol-3-ylamino)-7-(methyl-pyridin-4-ylmethyl-amino)-2H-phthalazin-1-one]",
5.62,2.23,"CC(=O)Nc1ccc2c(Nc3cc(C)[nH]n3)nn(C(C)C)c(=O)c2c1 [Example I-8, N-[3-Isopropyl-1-(5-methyl-1H-pyrazol-3-ylamino)-4-oxo-3,4-dihydro-phthalazin-6-yl]-acetamide]",
2.16,0.769,"Cc1cc(Nc2nn(C(C)C)c(=O)c3cc(C(=O)NC(C)C)ccc23)n[nH]1 [Example M-5, 3-Isopropyl-1-(5-methyl-1H-pyrazol-3-ylamino)-4-oxo-3,4-dihydro-phthalazine-6-carboxylic acid isopropylamide]",
9.99,67.7,"Cc1cc(Nc2nn(C(C)C)c(=O)c3cc(C(=O)OCC4CC4)ccc23)n[nH]1 [Example M-6, 3-Isopropyl-1-(5-methyl-1H-pyrazol-3-ylamino)-4-oxo-3,4-dihydro-phthalazine-6-carboxylic acid cyclopropylmethyl ester]",
0.666,0.782,"Cc1cc(Nc2nn(C(C)C)c(=O)c3cc(CO)ccc23)[nH]n1 [Example M-9, 7-Hydroxymethyl-2-isopropyl-4-(5-methyl-1H-pyrazol-3-ylamino)-2H-phthalazin-1-one]",
3.02,0.86,"Cc1cc(Nc2nn(C(C)C)c(=O)c3cc(OCCCS(=O)(=O)N(C)C)ccc23)n[nH]1 [Example ZD-3, 3-[3-Isopropyl-1-(5-methyl-1H-pyrazol-3-ylamino)-4-oxo-3,4-dihydro-phthalazin-6-yloxy]-propane-1-sulfonic acid dimethylamide]",
0.894,0.44,"Cc1cc(Nc2nn(C(C)C)c(=O)c3cc(CS(C)(=O)=O)ccc23)n[nH]1 [Example ZI-2, 2-Isopropyl-7-methanesulfonylmethyl-4-(5-methyl-1H-pyrazol-3-yl-amino)-2H-phthalazin-1-one]",

SMILES,IC50 ([1]; read-out: IC50 (μM) SYK Assay) [µM],IC50 [2] [µM],IC50 ([1]; IC50 (μM) SYK Assay)
"Cc1cc(Nc2nn(C(C)C)c(=O)c3cc(N4CCCCC4)ccc23)n[nH]1 [Example F-10, 2-Isopropyl-4-(5-methyl-1H-pyrazol-3-ylamino)-7-piperidin-1-yl-2H-phthalazin-1-one]",,0.608,0.551 µM and 4.3 µM and 3.57 µM
